Experiment [1] concerns DNA. Put plainly: Binding affinity to calf thymus DNA. Type of experiment: nucleic-acid assay, Bos taurus.
Experiment [2] relates to B16. The experiment in a line: Cytotoxicity against mouse B16 cells. Type of experiment: functional, cell-based.
In experiment [3] the test system is HepG2. Put plainly: Cytotoxicity against human HepG2 cells. Type of experiment: functional, cell-based.
Experiment [4] is described as follows: Cytotoxicity against mouse LLC cells. Type of experiment: functional, cell-based. The settings on record: Lewis lung carcinoma.

Some results are limits rather than exact numbers.

As usually defined, the IC50 is the concentration that inhibits the measured activity by half. Low readings indicate inhibition by little substance, high ones a need for much substance. In turn, `Cc1cc(O)c2c(c1)C(=O)c1cc(O)cc(O)c1C2=O` [EMODIN] came in with a Kb in experiment [1] of 68000 M⁻¹. For the same molecule, the values for the half-inhibitory concentration (IC50) in experiment [2], in experiment [3] and in experiment [4] were greater than 100 µM, 55.1 µM and greater than 100 µM, respectively.
The molecule `COc1cc(OC)c2c(c1)C(=O)c1cc(C)cc3c1c-2nn3CCN1CCN(C)CC1` gave a Kb in experiment [1] of 698000 M⁻¹. Moreover, the half-maximal inhibitory concentration (IC50) in experiment [2] turned out to be 20.1 µM; in experiment [3] it was 7.2 µM; in experiment [4] it was 8.9 µM.
The molecule `CCN(CC)CCNCCn1nc2c3c(cc(C)cc31)C(=O)c1cc(OC)cc(OC)c1-2` showed a Kb in experiment [1] of 253000 M⁻¹. Also, the IC50 was determined as 10.1 µM in experiment [2], 37.6 µM in experiment [3] and 12.8 µM in experiment [4].
In experiment [1], `CCN(CC)CCn1nc2c3c(cc(C)cc31)C(=O)c1cc(OC)cc(OC)c1-2` yielded a Kb of 552000 M⁻¹. The IC50 in experiment [2] is 3.6 µM; in experiment [3], 4.9 µM; in experiment [4], 4.5 µM.

Source of the values: ChEMBL document CHEMBL1147960, “Spectroscopic studies of DNA binding modes of cation-substituted anthrapyrazoles derived from emodin” (Eur J Med Chem, 2007).
